“And” between values parts separate entries of the source, which are not always exact repeats. Identical values can stand only once. “Also recorded” adds a separate entry of the source. Like-named read-outs stand apart in the source and are kept apart here. One block for each compound: values may come before it.
What was measured:
aminopeptidase B = target: T1, aminopeptidase B (Rattus norvegicus, UniProt O09175); assay: Inhibition of aminopeptidase B (arginine β-naphthylamide hydrolysis); assay type: biochemical; conditions: for 50% inhibition dose (ID50) of aminopeptidase B: amount added to the test solution
T1 construct: aminopeptidase B of rat liver; from tissue; host or cells: rat liver, enzyme prepared by Sephadex 100 chromatography
T1 sequence (O09175 1-650): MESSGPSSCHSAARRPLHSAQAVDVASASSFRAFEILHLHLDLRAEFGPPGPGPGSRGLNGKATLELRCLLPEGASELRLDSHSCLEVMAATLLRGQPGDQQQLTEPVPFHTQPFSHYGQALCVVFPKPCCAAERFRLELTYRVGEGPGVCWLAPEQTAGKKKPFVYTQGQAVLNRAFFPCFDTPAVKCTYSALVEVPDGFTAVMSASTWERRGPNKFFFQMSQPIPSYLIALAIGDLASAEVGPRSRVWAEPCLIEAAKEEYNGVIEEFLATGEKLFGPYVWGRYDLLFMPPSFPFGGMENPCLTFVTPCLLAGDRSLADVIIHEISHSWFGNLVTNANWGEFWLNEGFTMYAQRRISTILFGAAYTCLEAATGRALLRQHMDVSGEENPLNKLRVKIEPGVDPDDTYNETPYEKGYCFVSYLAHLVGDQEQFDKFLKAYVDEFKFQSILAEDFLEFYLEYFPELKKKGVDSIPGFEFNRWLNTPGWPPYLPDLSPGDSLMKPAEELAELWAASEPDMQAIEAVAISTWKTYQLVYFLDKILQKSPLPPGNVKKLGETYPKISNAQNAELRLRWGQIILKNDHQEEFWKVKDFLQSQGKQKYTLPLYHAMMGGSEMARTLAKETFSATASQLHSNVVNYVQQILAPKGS
Experimental: To the mixture of 0.3 ml of 1 mM arginine β-naphthylamide and 1.0 ml of 0.1 M Tris hydrochloride buffer (pH 7.0), 0.7 ml of distilled water with or without a test material is added and warmed at 37° C.) for 3 minutes. The reaction is started by addition of 0.2 ml of aminopeptidase B solution which is prepared by Sephadex 100 chromatography as described by Hopusu et al. After 30 minutes at 37° C., 0.6 ml of 1.0 M acetate buffer (pH 4.2) containing diazonium salt of o-aminoazotoluene at 1.0 mg/ml and Tween 20 at 10% is added. […] The inhibition percent is calculated as follows: (b-a)/b × 100.

Solubility in solvents = assay type: physicochemical
[1] = system: aminopeptidase A of human serum; assay: Inhibition of aminopeptidase A; assay type: biochemical
[2] = system: methylcholanthrene-induced squamous cell carcinoma; assay: Increase of bleomycin effect on carcinoma in vivo; parameters: species or system rat; conditions: simultaneous subcutaneous daily injection, 5 mg/kg bestatin with 5 mg/kg bleomycin, rats
pepsin = assay: Inhibition of pepsin; assay type: biochemical
bacteria = assay: Antibacterial activity; assay type: cell-based
bleomycin hydrolase = assay: Inhibition of bleomycin hydrolase; assay type: biochemical
leucine aminopeptidase = target: T2, leucine aminopeptidase (Sus scrofa, UniProt P28839); assay: Inhibition of leucine aminopeptidase (L-leucine naphthylamide hydrolysis); assay type: biochemical, swine; conditions: substrate L-leucine-β-naphthylamide
T2 construct: leucine aminopeptidase of swine kidney; from tissue; host or cells: swine kidney
T2 sequence (P28839 33-519 limits assumed): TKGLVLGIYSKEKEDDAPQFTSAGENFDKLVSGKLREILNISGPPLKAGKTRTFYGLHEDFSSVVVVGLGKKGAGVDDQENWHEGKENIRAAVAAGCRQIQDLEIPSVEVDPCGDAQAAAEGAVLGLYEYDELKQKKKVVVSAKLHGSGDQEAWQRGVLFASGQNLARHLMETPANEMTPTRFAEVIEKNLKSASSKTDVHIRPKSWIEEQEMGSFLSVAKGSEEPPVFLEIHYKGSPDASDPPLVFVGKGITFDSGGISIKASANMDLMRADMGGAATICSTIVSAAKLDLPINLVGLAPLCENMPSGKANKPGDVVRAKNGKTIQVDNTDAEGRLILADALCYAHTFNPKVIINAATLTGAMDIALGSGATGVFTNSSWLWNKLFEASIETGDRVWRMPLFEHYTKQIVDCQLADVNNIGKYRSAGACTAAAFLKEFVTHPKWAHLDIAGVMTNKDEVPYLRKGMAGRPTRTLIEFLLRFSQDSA
Experimental: The activity was determined by the following method: to 0.25 ml. of 2 mM L-leucine-3-naphthylamide (Tokyo Chem. Indust. Co., Ltd., Japan) was added 0.5 ml. of 0.1 M Tris-HCl buffer at pH 7.0 and 0.2 ml. of distilled water with or without an inhibitor in a series of test tubes in a 37° C. bath. After 3 minutes, 0.05 ml. of enzyme solution was added and mixed well.

trypsin = assay: Inhibition of trypsin; assay type: biochemical
papain = target: T3, papain (Carica papaya, UniProt P00784); assay: Inhibition of papain; assay type: biochemical
T3 sequence (P00784 134-345): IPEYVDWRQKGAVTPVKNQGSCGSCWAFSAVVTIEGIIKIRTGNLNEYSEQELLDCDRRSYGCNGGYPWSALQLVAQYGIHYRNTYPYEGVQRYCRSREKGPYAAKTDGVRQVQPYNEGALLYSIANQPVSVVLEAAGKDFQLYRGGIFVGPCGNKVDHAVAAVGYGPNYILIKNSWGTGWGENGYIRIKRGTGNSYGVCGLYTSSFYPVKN

[3] = system: Yoshida rat sarcoma cells; assay: Increase of bleomycin activity in tissue culture; assay type: cell-based; conditions: bestatin 6.25 μg/ml in tissue culture medium
chymotrypsin = assay: Inhibition of chymotrypsin; assay type: biochemical
fungi = assay: Antifungal activity; assay type: cell-based; conditions: at 100 μg/ml
[4] = system: mammalian cells including cancer cells; assay: Inhibition of growth of mammalian cells; assay type: cell-based
elastase = assay: Inhibition of elastase; assay type: biochemical
[5] = Toxicity after intraperitoneal injection; assay type: in vivo, mouse
Stability to pH and heat = assay type: physicochemical; conditions: culture filtrate containing bestatin, pH 2.0 or pH 9.0, 60° C., 30 minutes
thermolysin = target: T4, thermolysin (Bacillus thermoproteolyticus, UniProt P00800); assay: Inhibition of thermolysin; assay type: biochemical
T4 sequence (P00800 233-548): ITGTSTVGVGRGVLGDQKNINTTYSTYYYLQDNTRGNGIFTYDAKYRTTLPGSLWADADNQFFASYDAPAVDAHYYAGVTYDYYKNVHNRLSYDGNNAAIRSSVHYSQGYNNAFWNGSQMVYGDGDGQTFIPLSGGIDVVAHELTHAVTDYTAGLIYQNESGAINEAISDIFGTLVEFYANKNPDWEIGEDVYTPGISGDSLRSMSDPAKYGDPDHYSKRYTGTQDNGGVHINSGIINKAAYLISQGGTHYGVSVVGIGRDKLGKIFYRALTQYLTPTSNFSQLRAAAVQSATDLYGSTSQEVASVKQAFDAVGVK

50% inhibition dose (ID50) of aminopeptidase B (aminopeptidase B): 8 µg
Structure (SMILES): COC(=O)[C@H](CC(C)C)NC(=O)[C@@H](O)[C@@H](Cc1ccccc1)NC(C)=O [N-acetyl-bestatin methyl ester]

50% inhibition dose (ID50) of aminopeptidase B (aminopeptidase B): 8.4 µg
Structure (SMILES): COC(=O)[C@H](CC(C)C)NC(=O)[C@@H](O)[C@H](N)Cc1ccccc1 [methyl ester of bestatin]

Structure (SMILES): CC(C)C[C@H](NC(=O)[C@@H](O)[C@H](N)Cc1ccccc1)C(=O)O [bestatin, [(2S,3R)-3-amino-2-hydroxy-4-phenylbutanoyl]-L-leucine]
solubility (Solubility in solvents; ethyl acetate, butyl acetate, ethyl ether, hexane, petroleum ether, benzene, chloroform): practically insoluble; also recorded: hardly soluble
solubility (Solubility in solvents; propanol and butanol): slightly soluble; also recorded: less soluble
solubility (Solubility in solvents; water, acetic acid, pyridine, dimethylsulfoxide, methanol, ethanol): soluble
inhibition of aminopeptidase A [1]: did not show any inhibition
inhibition of aminopeptidase A ([1]; at 100 μg/ml, aminopeptidase A of human serum): 26.4%
IC50 (aminopeptidase B; aminopeptidase B of rat liver): 178 nM
50% inhibition dose (ID50) of aminopeptidase B (aminopeptidase B): 0.1 µg and 0.10 µg
mode of inhibition (aminopeptidase B; substrate L-arginine-β-naphthylamide): competitive with the substrate
increase of bleomycin effect on squamous cell carcinoma [2]: 4 times
inhibition of pepsin (pepsin): did not show any inhibition
antibacterial activity (bacteria; at 100 μg/ml): no antibacterial
antibacterial activity (bacteria; no concentration given): substantially no antibacterial activity
inhibition of bleomycin hydrolase (bleomycin hydrolase): strong inhibition
mode of inhibition (leucine aminopeptidase): competitive with the substrate
inhibition of trypsin (trypsin): did not show any inhibition
inhibition of papain (papain): did not show any inhibition
increase of bleomycin activity in inhibiting Yoshida rat sarcoma cells [3]: 4- 8 times
inhibition of chymotrypsin (chymotrypsin): did not show any inhibition
antifungal activity (fungi): no antifungal
inhibition of growth of mammalian cells [4]: weak inhibition
inhibition of elastase (elastase): did not show any inhibition
toxicity ([5]; intraperitoneal injection of 295 mg/kg, mouse): no toxicity
death ([5]; intraperitoneal injection of 300 mg/kg, mice): no death
stability (activity after treatment) (Stability to pH and heat): No decrease of the activity
inhibition of thermolysin (thermolysin): did not show any inhibition

From patent publication US4029547A (priority 1974, dated 1977)
